The values that follow come from patent publication US20230398130A1, “METHODS AND COMPOSITIONS FOR DIFFERENTIATING STEM CELLS” (Massachusetts Institute of Technology, priority 2020, published 2023).

Each structure is given as a SMILES string.

Assay [1] relates to ISC-enriched organoids. Description: Primary screen, 384-well 2.5-D organoid differentiation (ENR+CD, 6 days): carbachol-induced lysozyme secretion (LYZ.S). The format is cell-based, murine. The following applies: for Dose.FC.LYZ.S: FC vs plate median; for Z.LYZ.S: standard z score; for SSMD.LYZ.S: strictly standardized mean difference. The text has this:
(§1) High-throughput screening.

In assay [2] the test system is ISC-enriched organoids. Description: Primary screen, 384-well 2.5-D organoid differentiation (ENR+CD, 6 days, Target Selective Inhibitor Library, vs whole-plate median): ATP (CellTiter-Glo 3D, CTG). Particulars: for Dose.FC.CTG: FC vs plate median; for SSMD.CTG: strictly standardized mean difference. (In general: In ATP-based viability assays light output follows the ATP content of the culture.)

Assay [3] deals with ISC-enriched organoids. The experiment in a line: Primary screen, 384-well 2.5-D organoid differentiation (ENR+CD, 6 days): basal lysozyme secretion (LYZ.NS). The assay is classed as cell-based, murine. The following applies: for Dose.FC.LYZ.NS: FC vs plate median; for SSMD.LYZ.NS: strictly standardized mean difference.
Source text: as §1

Setting [4] is: Dose 0.08 uM, standard z score of FC.
Where [5] appears, read: Dose 0.40 uM, standard z score of FC.
Where [6] appears, read: Dose 2.00 uM, standard z score of FC.
Where [7] appears, read: Dose 10.00 uM, standard z score of FC.
[8] abbreviates: Dose 0.08 uM, primary screen, standard z score.
Where [9] appears, read: Dose 0.40 uM, primary screen, standard z score.
Where [10] appears, read: Dose 2.00 uM, primary screen, standard z score.
Setting [11] is: Dose 10.00 uM, primary screen, standard z score.
The mark [12] stands for this setting: primary screen, 1st of the 4 dose lines of the treatment (dose not given).
[13] abbreviates: primary screen, 2nd of the 4 dose lines of the treatment (dose not given).
Where [14] appears, read: primary screen, 3rd of the 4 dose lines of the treatment (dose not given).
The mark [15] stands for this setting: primary screen, 4th of the 4 dose lines of the treatment (dose not given).

Take `CC1C(=O)OC2C(O)C34C5CC(C(C)(C)C)C36C(OC(=O)C6O)OC4(C(=O)O5)C12O` (centres unmarked) [Ginkgolide B]: the Dose.FC.LYZ.S with ISC-enriched organoids [1] (Dose 0.08 uM, ENR+CD, 6 days) is 0.034 log 2 fold change; in the assay on ISC-enriched organoids [1] (Dose 0.40 uM, ENR+CD, 6 days), 0.047 log 2 fold change; in the assay on ISC-enriched organoids [1] (Dose 2.00 uM, ENR+CD, 6 days) it was 0.033 log 2 fold change; with ISC-enriched organoids [1] (Dose 10.00 uM, ENR+CD, 6 days), −0.035 log 2 fold change. The Dose.FC.CTG with ISC-enriched organoids [2] (Dose 0.08 uM, ENR+CD, 6 days) is −0.076 log 2 fold change; in the assay with ISC-enriched organoids [2] (Dose 0.40 uM, ENR+CD, 6 days), 0.034 log 2 fold change; in the assay with ISC-enriched organoids [2] (Dose 2.00 uM, ENR+CD, 6 days), −0.154 log 2 fold change; in the assay with ISC-enriched organoids [2] (Dose 10.00 uM, ENR+CD, 6 days) it was 0.177 log 2 fold change. Also, the Z.CTG with ISC-enriched organoids [2] (setting [4]) was −0.182; in the assay with ISC-enriched organoids [2] (setting [5]) it was 0.081; in the assay on ISC-enriched organoids [2] (setting [6]) it was −0.369; in the assay on ISC-enriched organoids [2] (setting [7]), 0.422. Besides, the Dose.FC.LYZ.NS with ISC-enriched organoids [3] (Dose 0.08 uM, ENR+CD, 6 days) was 0.041 log 2 fold change; in the assay with ISC-enriched organoids [3] (Dose 0.40 uM, ENR+CD, 6 days), 0.109 log 2 fold change; in the assay on ISC-enriched organoids [3] (Dose 2.00 uM, ENR+CD, 6 days), 0.061 log 2 fold change; in the assay on ISC-enriched organoids [3] (Dose 10.00 uM, ENR+CD, 6 days), −0.037 log 2 fold change. Also, the Z.LYZ.NS is given as 0.353 in the assay with ISC-enriched organoids [3] (setting [4]), 0.950 in the assay with ISC-enriched organoids [3] (setting [5]), 0.528 in the assay with ISC-enriched organoids [3] (setting [6]) and −0.326 in the assay with ISC-enriched organoids [3] (setting [7]).
`Cc1ccc(S(=O)(=O)NC(=O)NN2CC3CCCC3C2)cc1` (centres unmarked) [Gliclazide] came in with a Dose.FC.LYZ.S in the assay on ISC-enriched organoids [1] (Dose 10.00 uM, ENR+CD, 6 days) of −0.060 log 2 fold change. Moreover, the Z.CTG with ISC-enriched organoids [2] (setting [4]) is listed as 0.386; with ISC-enriched organoids [2] (setting [5]), 0.128; in the assay with ISC-enriched organoids [2] (setting [6]), 0.020; in the assay with ISC-enriched organoids [2] (setting [7]) it was −0.219. Moreover, the Dose.FC.CTG in the assay with ISC-enriched organoids [2] (Dose 10.00 uM, ENR+CD, 6 days) is given as −0.092 log 2 fold change. Moreover, the Dose.FC.LYZ.NS with ISC-enriched organoids [3] (Dose 10.00 uM, ENR+CD, 6 days) was −0.035 log 2 fold change.
With `COc1ccc2c(c1)c(C1=C(c3c[nH]c4ccccc34)C(=O)NC1=O)cn2CCCN(C)C` [Go 6983], the Dose.FC.LYZ.S is 0.021 log 2 fold change in the assay on ISC-enriched organoids [1] (Dose 0.08 uM, primary screen); 0.007 log 2 fold change in the assay on ISC-enriched organoids [1] (Dose 0.40 uM, primary screen); −0.010 log 2 fold change with ISC-enriched organoids [1] (Dose 2.00 uM, primary screen); −0.073 log 2 fold change in the assay with ISC-enriched organoids [1] (Dose 10.00 uM, primary screen). Moreover, the Dose.FC.CTG with ISC-enriched organoids [2] (Dose 0.08 uM, primary screen) is listed as 0.021 log 2 fold change; with ISC-enriched organoids [2] (Dose 0.40 uM, primary screen), −0.036 log 2 fold change; in the assay with ISC-enriched organoids [2] (Dose 2.00 uM, primary screen), 0.058 log 2 fold change; with ISC-enriched organoids [2] (Dose 10.00 uM, primary screen), −0.181 log 2 fold change. In addition, the Z.CTG with ISC-enriched organoids [2] (setting [8]) is 0.050; in the assay with ISC-enriched organoids [2] (setting [9]), −0.085; in the assay on ISC-enriched organoids [2] (setting [10]) it was 0.138; in the assay with ISC-enriched organoids [2] (setting [11]) it was −0.433. The Dose.FC.LYZ.NS in the assay with ISC-enriched organoids [3] (Dose 0.08 uM, primary screen) is on record as −0.005 log 2 fold change; in the assay on ISC-enriched organoids [3] (Dose 0.40 uM, primary screen), 0.013 log 2 fold change; in the assay on ISC-enriched organoids [3] (Dose 2.00 uM, primary screen) it was 0.091 log 2 fold change; in the assay on ISC-enriched organoids [3] (Dose 10.00 uM, primary screen), −0.092 log 2 fold change. Besides, the Z.LYZ.NS with ISC-enriched organoids [3] (setting [8]) is −0.046; with ISC-enriched organoids [3] (setting [9]), 0.114; in the assay on ISC-enriched organoids [3] (setting [10]), 0.791; with ISC-enriched organoids [3] (setting [11]), −0.798.
Take `Cl.Cl.O=S(=O)(NCCNC/C=C/c1ccc(Br)cc1)c1cccc2cnccc12` [H 89 2HCl]: the Dose.FC.LYZ.S in the assay on ISC-enriched organoids [1] (Dose 0.08 uM, primary screen) was found to be 0.118 log 2 fold change; in the assay with ISC-enriched organoids [1] (Dose 0.40 uM, primary screen), 0.148 log 2 fold change; in the assay with ISC-enriched organoids [1] (Dose 2.00 uM, primary screen), 0.087 log 2 fold change; with ISC-enriched organoids [1] (Dose 10.00 uM, primary screen) it was 0.000 log 2 fold change. Besides, the Z.LYZ.S in the assay on ISC-enriched organoids [1] (setting [12]) is listed as 0.764; in the assay with ISC-enriched organoids [1] (setting [13]), 0.955; with ISC-enriched organoids [1] (setting [14]) it was 0.565; in the assay on ISC-enriched organoids [1] (setting [15]) it was −0.001. The SSMD.LYZ.S in the assay with ISC-enriched organoids [1] (setting [12]) is recorded as 0.529; in the assay on ISC-enriched organoids [1] (setting [13]), 0.703; in the assay with ISC-enriched organoids [1] (setting [14]) it was 0.329; in the assay with ISC-enriched organoids [1] (setting [15]) it was −0.001. In addition, the Dose.FC.CTG in the assay on ISC-enriched organoids [2] (Dose 0.08 uM, primary screen) came to 0.350 log 2 fold change; in the assay on ISC-enriched organoids [2] (Dose 0.40 uM, primary screen), 0.398 log 2 fold change; in the assay with ISC-enriched organoids [2] (Dose 2.00 uM, primary screen), 0.421 log 2 fold change; in the assay with ISC-enriched organoids [2] (Dose 10.00 uM, primary screen) it was 0.385 log 2 fold change. Also, the Z.CTG in the assay on ISC-enriched organoids [2] (setting [8]) is recorded as 0.836; in the assay with ISC-enriched organoids [2] (setting [9]), 0.950; with ISC-enriched organoids [2] (setting [10]), 1.005; with ISC-enriched organoids [2] (setting [11]), 0.919. For the same compound, the SSMD.CTG with ISC-enriched organoids [2] (setting [12]) turned out to be 1.039; in the assay with ISC-enriched organoids [2] (setting [13]), 0.952; in the assay on ISC-enriched organoids [2] (setting [14]), 0.830; with ISC-enriched organoids [2] (setting [15]), 1.211. The Dose.FC.LYZ.NS was found to be 0.140 log 2 fold change with ISC-enriched organoids [3] (Dose 0.08 uM, primary screen); 0.080 log 2 fold change with ISC-enriched organoids [3] (Dose 0.40 uM, primary screen); 0.086 log 2 fold change with ISC-enriched organoids [3] (Dose 2.00 uM, primary screen); 0.132 log 2 fold change in the assay with ISC-enriched organoids [3] (Dose 10.00 uM, primary screen). For the same compound, the Z.LYZ.NS was 1.223 with ISC-enriched organoids [3] (setting [8]), 0.695 with ISC-enriched organoids [3] (setting [9]), 0.747 in the assay on ISC-enriched organoids [3] (setting [10]) and 1.151 with ISC-enriched organoids [3] (setting [11]). In addition, the SSMD.LYZ.NS with ISC-enriched organoids [3] (setting [12]) came to 0.995; in the assay on ISC-enriched organoids [3] (setting [13]) it was 0.816; in the assay with ISC-enriched organoids [3] (setting [14]), 0.521; in the assay with ISC-enriched organoids [3] (setting [15]), 0.374.
